Measurements published in ChEMBL document CHEMBL5500373, “Lead optimization based design, synthesis, and pharmacological evaluation of quinazoline derivatives as multi-targeting agents for Alzheimer's disease treatment” (Eur J Med Chem, 2024).
The source made the active and inactive calls. The rule behind the calls is not given here.

Assays:
Rattus norvegicus [1] = assay: (§1) Reversal of amyloid beta (1 to 42 residues) induced cognitive impairment in female Wistar rat assessed as reduction in amyloid beta level in brain hippocampus at 20 mg/kg, po pretreated with amyloid beta for 7 days followed by compound administration and measured after 5 days by immunohistochemistry analysis; type: functional, organism-based; conditions: time 5.0 day
Acetylcholinesterase [2] = molecular target: T1, Acetylcholinesterase (Homo sapiens, UniProt P22303); assay: Inhibition of human erythrocyte AChE using acetylthiocholine iodide as substrate preincubated for 30 mins followed by substrate addition and measured after 30 mins by DTNB based Ellman's method
T1 sequence (P22303 whole entry, the tested form may be a part): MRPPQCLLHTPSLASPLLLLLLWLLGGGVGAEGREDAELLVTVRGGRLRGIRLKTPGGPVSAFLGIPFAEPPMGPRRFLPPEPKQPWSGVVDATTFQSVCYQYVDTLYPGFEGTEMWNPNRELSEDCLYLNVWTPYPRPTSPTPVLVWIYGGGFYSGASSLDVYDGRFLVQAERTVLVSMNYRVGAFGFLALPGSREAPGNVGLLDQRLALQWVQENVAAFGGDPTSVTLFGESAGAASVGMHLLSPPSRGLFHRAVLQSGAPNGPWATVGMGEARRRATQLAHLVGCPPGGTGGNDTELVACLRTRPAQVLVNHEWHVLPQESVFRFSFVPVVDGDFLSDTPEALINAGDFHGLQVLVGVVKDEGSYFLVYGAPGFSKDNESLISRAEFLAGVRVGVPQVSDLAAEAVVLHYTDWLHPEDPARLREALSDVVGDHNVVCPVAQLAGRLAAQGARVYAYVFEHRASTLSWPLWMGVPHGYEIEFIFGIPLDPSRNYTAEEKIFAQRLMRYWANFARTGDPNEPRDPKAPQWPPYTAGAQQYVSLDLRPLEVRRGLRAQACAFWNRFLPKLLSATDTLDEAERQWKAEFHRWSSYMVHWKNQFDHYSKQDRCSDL

Drosophila melanogaster [3] = assay: Reversal of ey-GAL4 driven UAS-amyloid beta induced cellular toxicity in Drosophila melanogaster Oregon R-positive model assessed as increase in rescued eye phenotype at 5 uM by trinocular stereo-zoom microscope relative to control; type: functional
Acetylcholinesterase [4] = molecular target: T1, Acetylcholinesterase; assay: Non-competitive inhibition of human AChE using acetylthiocholine iodide as substrate assessed as inhibition constant at 0.03 to 0.3 uM by Dixon plot analysis
[5] = molecular target: Amyloid-beta precursor protein (Homo sapiens) (UniProt P05067); assay: Inhibition of amyloid beta (1 to 42 residues) (unknown origin) aggregation assessed as disaggregation by measuring reduction in fluorescence intensity measured after 3 days by confocal microscopic analysis; conditions: time 3.0 day
Sequence of Amyloid-beta precursor protein (Homo sapiens) (P05067 whole entry, the tested form may be a part): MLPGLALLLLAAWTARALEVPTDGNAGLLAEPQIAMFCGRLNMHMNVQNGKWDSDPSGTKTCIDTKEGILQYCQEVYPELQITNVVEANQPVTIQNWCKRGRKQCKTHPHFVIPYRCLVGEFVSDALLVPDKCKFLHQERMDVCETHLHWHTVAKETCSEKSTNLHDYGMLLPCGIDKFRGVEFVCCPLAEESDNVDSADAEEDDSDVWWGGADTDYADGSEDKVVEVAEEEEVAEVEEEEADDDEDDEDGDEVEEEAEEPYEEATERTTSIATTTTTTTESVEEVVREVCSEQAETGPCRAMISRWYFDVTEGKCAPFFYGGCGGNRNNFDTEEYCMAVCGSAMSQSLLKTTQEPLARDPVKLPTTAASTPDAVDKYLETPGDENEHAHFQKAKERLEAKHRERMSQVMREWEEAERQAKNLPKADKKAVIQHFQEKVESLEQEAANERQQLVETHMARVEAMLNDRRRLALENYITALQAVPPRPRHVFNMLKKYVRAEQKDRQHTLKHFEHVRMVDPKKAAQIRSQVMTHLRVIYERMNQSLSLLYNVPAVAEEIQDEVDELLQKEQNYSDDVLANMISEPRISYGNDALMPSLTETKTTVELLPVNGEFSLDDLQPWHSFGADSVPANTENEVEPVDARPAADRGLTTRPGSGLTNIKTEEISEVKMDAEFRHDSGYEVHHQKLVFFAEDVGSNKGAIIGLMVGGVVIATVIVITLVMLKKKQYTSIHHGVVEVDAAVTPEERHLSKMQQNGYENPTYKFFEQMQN

[6] = Neurotoxicity against retinoic acid/BDNF differentiated human SH-SY5Y cells assessed as reduction in cell viability at 80 uM incubated for 24 hrs by MTT assay relative to control; type: toxicity, cell-based
Acetylcholinesterase [7] = molecular target: T1, Acetylcholinesterase; assay: Non-competitive inhibition of human AChE using varying concentrations of acetylthiocholine iodide as substrate assessed as reduction in Vmax with constant Km at 0.03 to 0.3 uM by Lineweaver-Burk double reciprocal plot analysis; conditions: dose 0.03-0.3 µM
Drosophila melanogaster [8] = assay: Reversal of ey-GAL4 driven UAS-amyloid beta induced cellular toxicity in Drosophila melanogaster Oregon R-positive model assessed as reduction in mild ommatidial death eye phenotype at 15 uM by trinocular stereo-zoom microscope relative to control; type: functional; set-up: scale not given: the % may be the effect or the level left
[9] = Drug concentration in male Wistar rat brain homogenate at 20 mg/kg, po measured after 4 days; type: ADME, organism-based; conditions: time 4 day, read-out: Ct
[10] = molecular target: Amyloid-beta precursor protein (Homo sapiens) (UniProt P05067); assay: Inhibition of amyloid beta (1 to 42 residues) (unknown origin) aggregation assessed as reduction in fibrils measured after 3 days by AFM analysis; conditions: time 3.0 day
Drosophila melanogaster [11] = assay: Reversal of ey-GAL4 driven UAS-amyloid beta induced cellular toxicity in Drosophila melanogaster Oregon R-positive model assessed as increase in cell viability in gut at 50 uM by MTT assay relative to control; type: functional
Rattus norvegicus [12] = assay: as §1, with “in BACE-1” for “in amyloid beta”; type: functional, organism-based; conditions: time 5.0 day
[13] = Acute toxicity in female Wistar rat assessed as weight loss at 100 to 500 mg/kg, po measured upto 5 days; type: organism-based; conditions: in vivo, 120 h, dose 100-500 mg/kg, time < 5 day
Acetylcholinesterase [14] = molecular target: T1, Acetylcholinesterase; assay: Inhibition of human AChE using acetylthiocholine iodide as substrate assessed as reversal of enzyme activity by measuring remaining activity at 10 to 100 times IC50 incubated for 30 mins followed by dilution to 0.1 to 1 times IC50 with substrate

Q: Which Activity (Rattus norvegicus [1]) does the source give for COc1cc2ncnc(N3CCN(Cc4ccccc4)CC3)c2cc1OC here?
A: The Activity was “Active”.

Q: What about the IC50 (Acetylcholinesterase [2]) of the same compound?
A: The IC50 was 283 nM.

Q: And the Activity (Drosophila melanogaster [3])?
A: Its Activity is 27%.

Q: And the Ki (Acetylcholinesterase [4])?
A: The Ki was 246 nM.

Q: And the Activity [5]?
A: The Activity was “Active”.

Q: And the Activity [6]?
A: Its Activity is 26%.

Q: And the Activity (Acetylcholinesterase [7])?
A: The Activity was “Active”.

Q: And the Activity (Drosophila melanogaster [8])?
A: Its Activity is 30%.

Q: What about the concentration at 96 h [9] of the same compound?
A: Its concentration at 96 h is 977 ng/mL.

Q: And the inhibition [10]?
A: The inhibition was “Active”.

Q: And the Activity (Drosophila melanogaster [11])?
A: The Activity was 75%.

Q: And the Activity (Rattus norvegicus [12])?
A: Its Activity is “Active”.

Q: And the Activity [13]?
A: The Activity was “Toxic”.

Q: And the Activity (Acetylcholinesterase [14])?
A: The Activity was greater than 60%.
